In assay [1] the target is T1, Sentrin-specific protease 6 (Homo sapiens, UniProt Q9GZR1).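 Also: Luminescence-based dose-response confirmatory assay of SENP6 inhibition, following up an ultra-high-throughput screen.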
T1 sequence (Q9GZR1 whole entry): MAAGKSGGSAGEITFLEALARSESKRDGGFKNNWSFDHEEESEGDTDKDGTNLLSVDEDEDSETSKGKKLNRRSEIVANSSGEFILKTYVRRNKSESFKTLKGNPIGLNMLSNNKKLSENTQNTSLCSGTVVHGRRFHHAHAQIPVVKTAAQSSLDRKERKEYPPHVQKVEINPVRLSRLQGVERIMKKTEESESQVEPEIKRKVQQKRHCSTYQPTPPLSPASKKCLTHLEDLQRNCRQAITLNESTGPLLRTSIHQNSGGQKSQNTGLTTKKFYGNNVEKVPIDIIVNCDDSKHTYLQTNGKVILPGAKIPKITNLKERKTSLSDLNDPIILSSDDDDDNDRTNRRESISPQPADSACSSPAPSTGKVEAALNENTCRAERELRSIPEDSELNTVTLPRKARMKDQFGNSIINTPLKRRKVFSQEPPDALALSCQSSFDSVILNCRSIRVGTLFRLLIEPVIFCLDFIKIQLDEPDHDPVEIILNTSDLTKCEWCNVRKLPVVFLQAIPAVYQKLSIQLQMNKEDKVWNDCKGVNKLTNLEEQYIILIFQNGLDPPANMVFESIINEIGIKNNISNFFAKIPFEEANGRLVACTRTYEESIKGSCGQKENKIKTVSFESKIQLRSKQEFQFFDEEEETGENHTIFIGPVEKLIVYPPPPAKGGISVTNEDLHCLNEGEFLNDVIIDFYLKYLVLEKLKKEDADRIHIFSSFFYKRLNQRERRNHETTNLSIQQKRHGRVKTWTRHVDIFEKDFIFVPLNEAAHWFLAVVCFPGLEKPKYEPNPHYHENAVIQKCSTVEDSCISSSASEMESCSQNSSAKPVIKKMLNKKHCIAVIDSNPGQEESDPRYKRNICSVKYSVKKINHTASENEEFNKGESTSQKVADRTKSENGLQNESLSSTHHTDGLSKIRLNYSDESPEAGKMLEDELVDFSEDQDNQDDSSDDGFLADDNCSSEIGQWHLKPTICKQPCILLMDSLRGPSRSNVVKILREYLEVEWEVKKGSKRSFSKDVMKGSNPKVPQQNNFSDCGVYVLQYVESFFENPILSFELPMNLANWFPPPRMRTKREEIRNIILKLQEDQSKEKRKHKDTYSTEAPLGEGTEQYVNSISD
It is filed as functional.

The target in assay [2] is T2, Caspase-6 (Homo sapiens, UniProt P55212).
T2 sequence (P55212 whole entry): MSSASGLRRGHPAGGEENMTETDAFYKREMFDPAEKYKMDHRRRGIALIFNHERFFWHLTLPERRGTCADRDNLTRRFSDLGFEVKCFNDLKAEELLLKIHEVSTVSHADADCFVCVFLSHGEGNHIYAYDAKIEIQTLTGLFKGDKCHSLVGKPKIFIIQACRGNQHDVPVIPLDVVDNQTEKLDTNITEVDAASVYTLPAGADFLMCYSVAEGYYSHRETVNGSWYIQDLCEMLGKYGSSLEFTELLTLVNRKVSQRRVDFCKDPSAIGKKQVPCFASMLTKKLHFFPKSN
Put plainly: inhibition of CASP6 peptide cleavage – biochemical, VEID-R110 fluorescence, cherry-pick, dose response (AID 720632).

Assay [3] is described as follows: NIH-3T3 fibroblast cytotoxicity, dose response, cytotoxicity control, cell-based, fluorescence, Alamar Blue, secondary assay (AID 2327).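 Also: NIH-3T3 mouse fibroblasts cultured with fluconazole at 8 µg/mL.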 It counts as functional. A general note: The colour change of resazurin is a common sign of viable cells or microbes.
Assay [4] addresses T3, Insulin-degrading enzyme (Homo sapiens, UniProt P14735).
T3 sequence (P14735 whole entry): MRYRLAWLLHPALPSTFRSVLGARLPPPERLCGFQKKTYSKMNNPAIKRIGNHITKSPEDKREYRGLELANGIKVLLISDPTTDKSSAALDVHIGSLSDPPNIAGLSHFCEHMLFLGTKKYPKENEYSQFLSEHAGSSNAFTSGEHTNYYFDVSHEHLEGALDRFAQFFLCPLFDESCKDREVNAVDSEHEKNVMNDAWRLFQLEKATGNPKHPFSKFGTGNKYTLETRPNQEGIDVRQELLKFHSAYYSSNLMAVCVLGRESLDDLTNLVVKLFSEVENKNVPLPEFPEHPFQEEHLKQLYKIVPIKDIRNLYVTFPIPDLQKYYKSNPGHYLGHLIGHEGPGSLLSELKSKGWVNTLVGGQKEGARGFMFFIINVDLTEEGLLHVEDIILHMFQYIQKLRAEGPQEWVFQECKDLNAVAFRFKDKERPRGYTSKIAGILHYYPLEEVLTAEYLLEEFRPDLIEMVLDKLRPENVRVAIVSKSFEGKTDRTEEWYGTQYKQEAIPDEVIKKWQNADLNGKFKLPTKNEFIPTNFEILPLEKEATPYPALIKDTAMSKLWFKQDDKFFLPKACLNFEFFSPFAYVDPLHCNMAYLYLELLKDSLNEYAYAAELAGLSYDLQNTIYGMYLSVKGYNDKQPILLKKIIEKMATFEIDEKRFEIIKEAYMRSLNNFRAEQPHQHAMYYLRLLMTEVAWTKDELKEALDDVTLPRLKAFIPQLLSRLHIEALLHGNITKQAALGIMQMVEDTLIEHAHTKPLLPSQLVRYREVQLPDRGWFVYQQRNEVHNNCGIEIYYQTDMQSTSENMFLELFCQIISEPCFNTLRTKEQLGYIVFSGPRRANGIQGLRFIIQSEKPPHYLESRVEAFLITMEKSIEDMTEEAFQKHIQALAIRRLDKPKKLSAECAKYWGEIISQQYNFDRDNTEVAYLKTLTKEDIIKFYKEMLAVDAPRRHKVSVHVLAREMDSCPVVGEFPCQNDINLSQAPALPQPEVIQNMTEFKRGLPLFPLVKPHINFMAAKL
Nature of the assay: recombinant IDE activation, cell-free – biochemical, fluorescence polarization, counter-screen for IDE activator project, dose response (AID 588681). On the technique in general: In fluorescence polarisation assays a small probe gives low polarisation when free and higher when bound to something large.

Assay [5] addresses MAP kinase-interacting serine/threonine-protein kinase 2 (Homo sapiens, UniProt Q9HBH9). It counts as functional.
The target in assay [6] is Tyrosine-protein kinase JAK3 (Homo sapiens, UniProt P52333). It is filed as functional.
Chain of Tyrosine-protein kinase JAK3 (P52333 whole entry): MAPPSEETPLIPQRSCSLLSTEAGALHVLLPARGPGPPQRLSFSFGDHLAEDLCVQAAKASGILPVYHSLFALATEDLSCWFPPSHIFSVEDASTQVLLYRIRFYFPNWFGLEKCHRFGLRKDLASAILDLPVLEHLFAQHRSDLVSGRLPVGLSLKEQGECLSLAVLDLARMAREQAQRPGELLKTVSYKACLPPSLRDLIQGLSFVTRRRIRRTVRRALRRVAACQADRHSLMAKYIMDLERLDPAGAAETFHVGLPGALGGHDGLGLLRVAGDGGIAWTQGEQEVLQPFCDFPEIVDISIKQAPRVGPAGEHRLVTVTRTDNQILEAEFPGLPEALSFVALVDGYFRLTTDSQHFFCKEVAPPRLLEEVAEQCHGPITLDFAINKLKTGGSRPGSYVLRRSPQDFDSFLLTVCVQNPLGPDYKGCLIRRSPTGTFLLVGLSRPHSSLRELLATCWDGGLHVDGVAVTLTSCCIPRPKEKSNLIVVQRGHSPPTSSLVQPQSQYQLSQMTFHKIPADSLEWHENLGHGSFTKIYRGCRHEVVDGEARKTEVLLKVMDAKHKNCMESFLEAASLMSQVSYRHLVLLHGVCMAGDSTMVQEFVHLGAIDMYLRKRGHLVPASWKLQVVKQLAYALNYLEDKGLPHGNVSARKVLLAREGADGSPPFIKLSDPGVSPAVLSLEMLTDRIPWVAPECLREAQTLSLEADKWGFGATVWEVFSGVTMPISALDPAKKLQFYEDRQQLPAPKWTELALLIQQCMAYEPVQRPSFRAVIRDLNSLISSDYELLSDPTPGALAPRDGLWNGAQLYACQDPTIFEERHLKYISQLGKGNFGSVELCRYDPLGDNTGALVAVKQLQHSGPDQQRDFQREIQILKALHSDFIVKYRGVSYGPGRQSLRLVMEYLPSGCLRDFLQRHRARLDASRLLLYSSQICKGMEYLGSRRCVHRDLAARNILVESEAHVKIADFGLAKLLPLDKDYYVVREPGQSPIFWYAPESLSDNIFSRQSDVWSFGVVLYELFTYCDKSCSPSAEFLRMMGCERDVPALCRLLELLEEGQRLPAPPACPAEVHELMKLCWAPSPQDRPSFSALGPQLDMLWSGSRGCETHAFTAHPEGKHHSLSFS
Assay [7] addresses Misshapen-like kinase 1 (Homo sapiens, UniProt Q8N4C8). It is filed as functional.
In assay [8] the target is Tyrosine-protein kinase Blk (Homo sapiens, UniProt P51451). It is filed as functional.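 Also: obtained as one member of a kinome-wide kinase assay panel.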
Chain of Tyrosine-protein kinase Blk (P51451 whole entry): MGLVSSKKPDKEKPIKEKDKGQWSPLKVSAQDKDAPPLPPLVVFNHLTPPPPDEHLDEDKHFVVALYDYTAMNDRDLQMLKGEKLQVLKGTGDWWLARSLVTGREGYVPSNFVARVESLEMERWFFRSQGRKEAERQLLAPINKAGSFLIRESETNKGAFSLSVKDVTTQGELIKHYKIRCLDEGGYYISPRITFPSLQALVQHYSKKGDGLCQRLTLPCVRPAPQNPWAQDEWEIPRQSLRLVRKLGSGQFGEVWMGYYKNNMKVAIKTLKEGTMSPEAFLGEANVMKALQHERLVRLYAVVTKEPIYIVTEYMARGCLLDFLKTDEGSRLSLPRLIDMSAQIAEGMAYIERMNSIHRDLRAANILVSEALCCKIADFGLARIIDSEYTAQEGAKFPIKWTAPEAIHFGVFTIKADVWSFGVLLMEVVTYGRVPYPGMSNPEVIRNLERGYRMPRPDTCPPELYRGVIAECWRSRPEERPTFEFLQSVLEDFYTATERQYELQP
Assay [9] concerns the target High affinity nerve growth factor receptor (Homo sapiens, UniProt P04629). It counts as functional.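 Also: NTRK1 tested as one member of a kinome-wide profiling panel.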
Assay [10] has as its target Casein kinase II subunit alpha (Homo sapiens, UniProt P68400). It counts as functional.
For assay [11], the target named is Fibroblast growth factor receptor 3 (Homo sapiens, UniProt P22607). It is filed as functional.
Chain of Fibroblast growth factor receptor 3 (P22607 whole entry): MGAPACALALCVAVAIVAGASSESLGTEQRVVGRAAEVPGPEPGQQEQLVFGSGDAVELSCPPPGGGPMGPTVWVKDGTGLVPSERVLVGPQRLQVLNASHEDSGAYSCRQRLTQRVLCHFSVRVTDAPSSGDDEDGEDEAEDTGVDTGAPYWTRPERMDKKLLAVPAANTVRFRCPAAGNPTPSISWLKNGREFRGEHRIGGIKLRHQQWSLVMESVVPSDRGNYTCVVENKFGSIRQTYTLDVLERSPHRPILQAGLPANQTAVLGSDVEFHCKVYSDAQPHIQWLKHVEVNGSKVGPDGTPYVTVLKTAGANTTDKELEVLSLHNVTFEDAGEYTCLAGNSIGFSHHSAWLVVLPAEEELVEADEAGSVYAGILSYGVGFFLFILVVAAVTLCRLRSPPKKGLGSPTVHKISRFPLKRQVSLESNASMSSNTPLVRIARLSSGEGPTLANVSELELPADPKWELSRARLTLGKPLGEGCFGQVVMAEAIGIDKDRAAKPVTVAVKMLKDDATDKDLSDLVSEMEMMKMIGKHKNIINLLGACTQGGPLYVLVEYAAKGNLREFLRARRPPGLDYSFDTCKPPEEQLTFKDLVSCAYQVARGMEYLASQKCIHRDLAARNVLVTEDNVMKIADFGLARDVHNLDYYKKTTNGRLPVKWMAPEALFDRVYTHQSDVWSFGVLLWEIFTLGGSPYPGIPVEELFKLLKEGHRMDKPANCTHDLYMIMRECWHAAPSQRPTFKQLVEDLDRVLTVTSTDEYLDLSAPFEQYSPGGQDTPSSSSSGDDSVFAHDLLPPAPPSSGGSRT

Each structure is given as a SMILES string. The source made the active and inactive calls.

Chain of MAP kinase-interacting serine/threonine-protein kinase 2 (Q9HBH9 whole entry): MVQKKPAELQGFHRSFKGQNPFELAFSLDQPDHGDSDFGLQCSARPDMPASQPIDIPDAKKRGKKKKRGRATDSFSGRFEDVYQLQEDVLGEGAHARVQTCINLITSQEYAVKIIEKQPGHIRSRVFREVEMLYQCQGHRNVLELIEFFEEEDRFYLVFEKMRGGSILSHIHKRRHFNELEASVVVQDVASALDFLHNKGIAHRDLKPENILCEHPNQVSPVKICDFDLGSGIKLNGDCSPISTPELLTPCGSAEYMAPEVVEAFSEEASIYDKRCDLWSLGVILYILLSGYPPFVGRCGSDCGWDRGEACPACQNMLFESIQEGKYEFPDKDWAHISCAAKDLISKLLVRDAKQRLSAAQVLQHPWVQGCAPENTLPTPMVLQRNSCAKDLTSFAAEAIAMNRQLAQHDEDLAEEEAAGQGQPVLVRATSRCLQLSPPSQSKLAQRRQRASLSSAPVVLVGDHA
Chain of Misshapen-like kinase 1 (Q8N4C8 whole entry): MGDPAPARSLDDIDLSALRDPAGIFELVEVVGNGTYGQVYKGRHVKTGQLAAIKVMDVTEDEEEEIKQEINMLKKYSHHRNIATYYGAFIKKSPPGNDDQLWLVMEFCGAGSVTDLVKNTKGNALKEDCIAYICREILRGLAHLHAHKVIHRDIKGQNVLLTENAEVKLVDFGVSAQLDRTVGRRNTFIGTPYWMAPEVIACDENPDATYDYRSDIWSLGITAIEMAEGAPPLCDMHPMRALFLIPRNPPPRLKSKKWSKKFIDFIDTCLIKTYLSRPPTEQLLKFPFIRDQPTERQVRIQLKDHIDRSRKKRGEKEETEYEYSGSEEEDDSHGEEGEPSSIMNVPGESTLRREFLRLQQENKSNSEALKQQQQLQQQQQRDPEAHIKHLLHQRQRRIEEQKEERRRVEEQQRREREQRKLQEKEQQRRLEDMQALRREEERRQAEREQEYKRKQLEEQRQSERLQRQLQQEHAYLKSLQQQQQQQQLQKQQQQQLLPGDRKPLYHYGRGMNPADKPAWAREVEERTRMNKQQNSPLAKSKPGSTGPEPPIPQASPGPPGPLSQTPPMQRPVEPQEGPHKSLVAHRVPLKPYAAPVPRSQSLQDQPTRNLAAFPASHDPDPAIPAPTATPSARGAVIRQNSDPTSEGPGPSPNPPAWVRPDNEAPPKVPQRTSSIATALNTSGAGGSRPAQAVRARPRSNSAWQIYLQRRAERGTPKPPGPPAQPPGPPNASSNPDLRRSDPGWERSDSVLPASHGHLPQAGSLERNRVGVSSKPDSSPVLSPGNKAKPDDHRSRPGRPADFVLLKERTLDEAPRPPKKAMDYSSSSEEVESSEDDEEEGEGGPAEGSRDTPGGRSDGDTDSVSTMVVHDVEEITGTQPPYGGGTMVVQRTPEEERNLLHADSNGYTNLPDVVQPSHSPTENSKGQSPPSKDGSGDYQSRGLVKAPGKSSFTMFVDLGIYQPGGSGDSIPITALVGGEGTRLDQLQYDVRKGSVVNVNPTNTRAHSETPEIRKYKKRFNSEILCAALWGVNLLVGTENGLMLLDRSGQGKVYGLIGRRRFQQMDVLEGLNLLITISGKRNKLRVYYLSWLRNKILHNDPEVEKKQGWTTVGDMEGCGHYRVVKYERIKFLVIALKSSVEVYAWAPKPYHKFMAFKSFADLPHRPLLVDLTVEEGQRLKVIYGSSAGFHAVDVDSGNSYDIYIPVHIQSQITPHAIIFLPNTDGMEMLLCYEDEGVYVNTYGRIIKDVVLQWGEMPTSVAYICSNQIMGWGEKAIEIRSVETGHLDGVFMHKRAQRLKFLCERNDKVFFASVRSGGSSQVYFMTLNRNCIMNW
Chain of High affinity nerve growth factor receptor (P04629 whole entry): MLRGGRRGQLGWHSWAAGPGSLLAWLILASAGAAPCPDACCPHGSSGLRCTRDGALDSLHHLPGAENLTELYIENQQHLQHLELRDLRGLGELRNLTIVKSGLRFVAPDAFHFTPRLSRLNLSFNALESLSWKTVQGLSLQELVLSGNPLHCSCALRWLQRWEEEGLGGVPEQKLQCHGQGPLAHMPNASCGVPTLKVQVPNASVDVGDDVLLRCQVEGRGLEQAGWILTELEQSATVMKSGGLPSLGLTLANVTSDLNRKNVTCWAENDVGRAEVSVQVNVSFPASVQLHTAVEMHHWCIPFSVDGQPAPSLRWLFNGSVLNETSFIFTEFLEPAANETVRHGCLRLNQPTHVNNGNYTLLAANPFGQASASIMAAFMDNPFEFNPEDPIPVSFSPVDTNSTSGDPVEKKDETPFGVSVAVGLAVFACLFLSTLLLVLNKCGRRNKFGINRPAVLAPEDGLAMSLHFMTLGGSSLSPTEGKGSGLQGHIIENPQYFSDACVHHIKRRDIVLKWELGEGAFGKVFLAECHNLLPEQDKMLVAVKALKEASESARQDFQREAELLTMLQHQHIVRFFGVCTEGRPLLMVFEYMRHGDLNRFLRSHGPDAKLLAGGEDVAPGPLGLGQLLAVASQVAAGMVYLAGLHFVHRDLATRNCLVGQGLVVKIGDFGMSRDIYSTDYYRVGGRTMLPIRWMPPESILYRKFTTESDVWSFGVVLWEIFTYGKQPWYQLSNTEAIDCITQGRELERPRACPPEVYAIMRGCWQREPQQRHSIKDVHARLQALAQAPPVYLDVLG

As usually defined, the IC50 is the point on the concentration scale where inhibition reaches its midpoint. In the case of `Cc1ccc(C(=O)NC2(O)C(=O)c3ccccc3C2=O)cc1C`, in [1], the IC50 is 3.48 µM (active).

In general, AC50 refers to the midpoint of the concentration-response curve, whichever way the signal moves. Turning to `O=[N+]([O-])c1c(Nc2ccccn2)cc(Cl)c2nonc12`, the AC50 in [2] is 1.06 µM (active).

One may read the EC50 as the concentration at which the effect is half-maximal. On to `CC[C@@H](C)[C@H](CNC)NC[C@@H](Cc1cccc2ccccc12)NCCc1cccc(C(F)(F)F)c1`, for which the EC50 is > 150 µM (inconclusive) in assay [3] and > 54.7 µM (inactive) in assay [4].

As a reminder, the Ki is the equilibrium dissociation constant of an inhibitor or competing ligand from its target. As to `CC(C)(CO)CNc1nccc(-c2c(-c3ccc(F)cc3)nc3c(CC4CC4)nccn23)n1`, the Ki was > 10 µM (inactive) in assay [5]; > 1.58 µM (inactive) in assay [6]; 3.16 µM (active) in assay [7]; > 1.58 µM (inactive) in assay [8]; > 2.51 µM (inactive) in assay [9]; > 6.31 µM (inactive) in assay [10]. For the same compound, the Ki in assay [11] is > 2 µM (inactive).
